Patent US11053204B2, “Pyrimidinyloxy benzene derivatives as herbicides” (FMC Corporation, priority 2015, dated 2021)

Tests used:
Format in all cases: in vivo
[1] = test system: ducksalad (Heteranthera limosa); assay: Test B flooded paddy test, plant response rating; conditions: 250 g ai/ha; Flood; scale of 0 to 100 where 0 is no effect and 100 is complete control; 13 to 15 days
Summary of the method: (§1)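 Pots were flooded to 3 cm above the soil surface at treatment, compound applied directly to the paddy water, and that depth held throughout. Plants were kept in a greenhouse for 13 to 15 days, then visually rated against untreated controls.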

rice (Oryza sativa) = assay: Test B flooded paddy test, plant response rating; conditions: 250 g ai/ha; Flood; scale of 0 to 100 where 0 is no effect and 100 is complete control; 13 to 15 days
Summary of the method: as §1

[2] = test system: sedge, umbrella (small-flower umbrella sedge, Cyperus difformis); assay: Test B flooded paddy test, plant response rating; conditions: 250 g ai/ha; Flood; scale of 0 to 100 where 0 is no effect and 100 is complete control; 13 to 15 days
Summary of the method: as §1

[3] = test system: blackgrass (Alopecurus myosuroides); assay: Test C preemergence, plant response rating; conditions: Preemergence
Summary of the method: (§2)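 Preemergence: seeds sown in loam–sand blend or silt loam and sprayed with test chemicals in a non-phytotoxic surfactant-containing solvent. Postemergence: potted plants at 2–18 cm (1–4-leaf stage) sprayed with the same formulation. After 13–15 d in greenhouse, visual rating versus controls on 0 (no effect) to 100 (complete control) scale.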

corn (Zea mays) = assay: Test C preemergence, plant response rating; conditions: Preemergence
Summary of the method: as §2

[4] = test system: crabgrass, large (large crabgrass, Digitaria sanguinalis); assay: Test C preemergence, plant response rating; conditions: Preemergence
Summary of the method: as §2

[5] = test system: foxtail, giant (giant foxtail, Setaria faberii); assay: Test C preemergence, plant response rating; conditions: Preemergence
Summary of the method: as §2

[6] = test system: lambsquarters (Chenopodium album); assay: Test C preemergence, plant response rating; conditions: Preemergence
Summary of the method: as §2

[7] = test system: morningglory (Ipomoea coccinea); assay: Test C preemergence, plant response rating; conditions: Preemergence
Summary of the method: as §2

[8] = test system: nutsedge, yellow (yellow nutsedge, Cyperus esculentus); assay: Test C preemergence, plant response rating; conditions: Preemergence
Summary of the method: as §2

[9] = test system: oilseed rape (Brassica napus); assay: Test C preemergence, plant response rating; conditions: Preemergence
Summary of the method: as §2

[10] = test system: ragweed (common ragweed, Ambrosia elatior); assay: Test C preemergence, plant response rating; conditions: Preemergence
Summary of the method: as §2

[11] = test system: ryegrass, Italian (Italian ryegrass, Lolium multiflorum); assay: Test C preemergence, plant response rating; conditions: Preemergence
Summary of the method: as §2

soybean (Glycine max) = assay: Test C preemergence, plant response rating; conditions: Preemergence
Summary of the method: as §2

[12] = test system: velvetleaf (Abutilon theophrasti); assay: Test C preemergence, plant response rating; conditions: Preemergence
Summary of the method: as §2

[13] = test system: waterhemp (common waterhemp, Amaranthus rudis); assay: Test C preemergence, plant response rating; conditions: Preemergence
Summary of the method: as §2

[14] = test system: wheat (winter wheat, Triticum aestivum); assay: Test C preemergence, plant response rating; conditions: Preemergence
Summary of the method: as §2

[15] = test system: pigweed (Amaranthus retroflexus); assay: Test C preemergence, plant response rating; conditions: Preemergence

In the case of `O=C(OCCC(F)(F)F)c1c(Br)cccc1Oc1ncc(Br)cn1` [Compound 33], the “Plant response rating, Ducksalad” value [1] is reported as 80, the “Plant response rating, Rice” value (rice (Oryza sativa)) is reported as 0 and the “Plant response rating, Sedge, Umbrella” value [2] is reported as 95. For the same molecule, the “Plant response rating, Blackgrass” value ([3]; 62 g ai/ha, scale of 0 to 100) was 70, the “Plant response rating, Blackgrass” value ([3]; 125 g ai/ha, scale of 0 to 100) was 90 and the “Plant response rating, Blackgrass” value ([3]; 16 g ai/ha, scale 0 to 100) was 0. The “Plant response rating, Blackgrass” value ([3]; 31 g ai/ha, scale 0 to 100) was 10, the “Plant response rating, Corn” value (corn (Zea mays); 62 g ai/ha, scale of 0 to 100) was 10 and the “Plant response rating, Corn” value (corn (Zea mays); 125 g ai/ha, scale of 0 to 100) was 10. For the same molecule, the “Plant response rating, Corn” value (corn (Zea mays); 16 g ai/ha, scale 0 to 100) was 0, the “Plant response rating, Corn” value (corn (Zea mays); 31 g ai/ha, scale 0 to 100) was 0 and the “Plant response rating, Crabgrass, Large” value ([4]; 62 g ai/ha, scale of 0 to 100) was 100. For the same molecule, the “Plant response rating, Crabgrass, Large” value ([4]; 125 g ai/ha, scale of 0 to 100) was 100, the “Plant response rating, Crabgrass, Large” value ([4]; 16 g ai/ha, scale 0 to 100) was 75 and the “Plant response rating, Crabgrass, Large” value ([4]; 31 g ai/ha, scale 0 to 100) was 98. The “Plant response rating, Foxtail, Giant” value ([5]; 62 g ai/ha, scale of 0 to 100) was 98, the “Plant response rating, Foxtail, Giant” value ([5]; 125 g ai/ha, scale of 0 to 100) was 100 and the “Plant response rating, Foxtail, Giant” value ([5]; 16 g ai/ha, scale 0 to 100) was 60. The “Plant response rating, Foxtail, Giant” value ([5]; 31 g ai/ha, scale 0 to 100) was 95, the “Plant response rating, Lambsquarters” value ([6]; 125 g ai/ha, scale of 0 to 100) was 85 and the “Plant response rating, Lambsquarters” value ([6]; 16 g ai/ha, scale 0 to 100) was 25. The “Plant response rating, Lambsquarters” value ([6]; 31 g ai/ha, scale 0 to 100) was 60, the “Plant response rating, Lambsquarters” value ([6]; 62 g ai/ha, scale 0 to 100) was 80 and the “Plant response rating, Morningglory” value ([7]; 125 g ai/ha, scale of 0 to 100) was 40. For the same molecule, the “Plant response rating, Morningglory” value ([7]; 16 g ai/ha, scale 0 to 100) was 0, the “Plant response rating, Morningglory” value ([7]; 31 g ai/ha, scale 0 to 100) was 0 and the “Plant response rating, Morningglory” value ([7]; 62 g ai/ha, scale 0 to 100) was 25. For the same molecule, the “Plant response rating, Nutsedge, Yellow” value ([8]; 125 g ai/ha, scale of 0 to 100) was 5, the “Plant response rating, Nutsedge, Yellow” value ([8]; 16 g ai/ha, scale 0 to 100) was 0 and the “Plant response rating, Nutsedge, Yellow” value ([8]; 31 g ai/ha, scale 0 to 100) was 0. The “Plant response rating, Nutsedge, Yellow” value ([8]; 62 g ai/ha, scale 0 to 100) was 5, the “Plant response rating, Oilseed Rape” value ([9]; 125 g ai/ha, scale of 0 to 100) was 100 and the “Plant response rating, Oilseed Rape” value ([9]; 16 g ai/ha, scale 0 to 100) was 50. For the same molecule, the “Plant response rating, Oilseed Rape” value ([9]; 31 g ai/ha, scale 0 to 100) was 80, the “Plant response rating, Oilseed Rape” value ([9]; 62 g ai/ha, scale 0 to 100) was 85 and the “Plant response rating, Ragweed” value ([10]; 125 g ai/ha, scale of 0 to 100) was 50. For the same molecule, the “Plant response rating, Ragweed” value ([10]; 16 g ai/ha, scale 0 to 100) was 55, the “Plant response rating, Ragweed” value ([10]; 31 g ai/ha, scale 0 to 100) was 35 and the “Plant response rating, Ragweed” value ([10]; 62 g ai/ha, scale 0 to 100) was 40. For the same molecule, the “Plant response rating, Ryegrass, Italian” value ([11]; 125 g ai/ha, scale of 0 to 100) was 85, the “Plant response rating, Ryegrass, Italian” value ([11]; 16 g ai/ha, scale 0 to 100) was 0 and the “Plant response rating, Ryegrass, Italian” value ([11]; 31 g ai/ha, scale 0 to 100) was 30. For the same molecule, the “Plant response rating, Ryegrass, Italian” value ([11]; 62 g ai/ha, scale 0 to 100) was 30, the “Plant response rating, Soybean” value (soybean (Glycine max); 125 g ai/ha, scale of 0 to 100) was 30 and the “Plant response rating, Soybean” value (soybean (Glycine max); 16 g ai/ha, scale 0 to 100) was 15. For the same molecule, the “Plant response rating, Velvetleaf” value ([12]; 125 g ai/ha, scale of 0 to 100) was 100, the “Plant response rating, Velvetleaf” value ([12]; 16 g ai/ha, scale 0 to 100) was 5 and the “Plant response rating, Velvetleaf” value ([12]; 31 g ai/ha, scale 0 to 100) was 30. For the same molecule, the “Plant response rating, Velvetleaf” value ([12]; 62 g ai/ha, scale 0 to 100) was 55, the “Plant response rating, Waterhemp” value ([13]; 125 g ai/ha, scale of 0 to 100) was 100 and the “Plant response rating, Waterhemp” value ([13]; 16 g ai/ha, scale 0 to 100) was 100. The “Plant response rating, Waterhemp” value ([13]; 31 g ai/ha, scale 0 to 100) was 100, the “Plant response rating, Waterhemp” value ([13]; 62 g ai/ha, scale 0 to 100) was 100 and the “Plant response rating, Wheat” value ([14]; 125 g ai/ha, scale of 0 to 100) was 5. For the same molecule, the “Plant response rating, Wheat” value ([14]; 16 g ai/ha, scale 0 to 100) was 0, the “Plant response rating, Wheat” value ([14]; 31 g ai/ha, scale 0 to 100) was 0 and the “Plant response rating, Wheat” value ([14]; 62 g ai/ha, scale 0 to 100) was 0. For the same molecule, the “Plant response rating, Pigweed” value ([15]; 125 g ai/ha, scale of 0 to 100) was 100, the “Plant response rating, Pigweed” value ([15]; 16 g ai/ha, scale 0 to 100) was 80 and the “Plant response rating, Pigweed” value ([15]; 31 g ai/ha, scale 0 to 100) was 100. The “Plant response rating, Pigweed” value ([15]; 62 g ai/ha, scale 0 to 100) was 100.
